# Measurements reported in article PMC7242566, “The Three Lipocalins of Egg-White: Only Ex-FABP Inhibits Siderophore-Dependent Iron Sequestration by Salmonella Enteritidis” (Frontiers in Microbiology, 2020).
# Values joined by “and” are separate entries in the source; they are usually repeats but may differ in a detail not shown here. Identical values can stand only once. Like-named read-outs stand apart in the source and are kept apart here.
# Assays:
# LCN2 [1] = molecular target: T1, LCN2 (Homo sapiens, UniProt P80188); test: Isothermal titration calorimetry, siderophore binding to LCN2; conditions: ITC; for n (binding stoichiometry) / ΔH (enthalpy) / ΔS (entropy) / Kd: TBS pH 7.4, 30°C; for Kd: 5 μM lipocalin
# T1 construct: made in house; host or cells: E. coli K-12 BW25113 ΔentB::kan (JW0587) (λDE3), pET21a
# T1 sequence (P80188 with tags, fused parts or gaps): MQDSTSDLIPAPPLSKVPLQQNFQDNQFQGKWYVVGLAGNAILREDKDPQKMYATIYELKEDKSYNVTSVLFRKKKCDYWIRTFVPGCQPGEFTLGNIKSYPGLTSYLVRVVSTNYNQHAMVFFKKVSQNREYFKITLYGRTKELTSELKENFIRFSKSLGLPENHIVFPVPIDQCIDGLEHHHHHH
# Method: (§1) Experiments were carried out with a GE Healthcare Microcal VP-ITC microcalorimeter according to the manufacturer’s guidelines (Operating Instructions 28-9639-79 AA). The device consisted of a motorized injection syringe, in which the ligand was loaded, with two adiabatic cells set at 30 °C. The left cell was filled with the reference (TBS with 1.3% DMSO), whereas the right cell was filled with 5 μM lipocalin protein dissolved in the same buffer. […] Samples were degassed and pre-equilibrated at the desired temperature using a GE MicroCal ThermoVac degassing station before loading into the syringe, sample cell and reference cell.
# Ex-FABP [2] = molecular target: T2, Ex-FABP (Gallus gallus, UniProt P21760); test: biochemical; type: binding, chicken
# T2 construct: made in house; host or cells: E. coli K-12 BW25113 ΔentB::kan (JW0587) (λDE3), pET21a, periplasmic secretion
# T2 sequence (P21760 21-178): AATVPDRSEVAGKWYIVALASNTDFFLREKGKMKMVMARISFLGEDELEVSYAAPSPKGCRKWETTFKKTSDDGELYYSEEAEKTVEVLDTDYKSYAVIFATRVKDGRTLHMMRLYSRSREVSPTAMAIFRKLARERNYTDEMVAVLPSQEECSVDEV
# Method: as §1
# Cal-γ = test: Isothermal titration calorimetry, siderophore binding to Cal-γ; design: species or system chicken; conditions: ITC, TBS pH 7.4, 30°C, 5 μM lipocalin
# Method: as §1
# (§2) FIGURE 2 Interactions between lipocalins and SE siderophores. […] Data for LCN2, Fe-Ent are shown in the Supplementary Figure S2.
# α-1-ovoglycoprotein = test: Isothermal titration calorimetry, siderophore binding to α-1-ovoglycoprotein; design: species or system chicken; conditions: ITC, TBS pH 7.4, 30°C, 5 μM recombinant non-glycosylated lipocalin
# Method: as §1, §2
# LCN2 [3] = molecular target: T1, LCN2; conditions: cited from earlier work; for Kd: TQF
# Ex-FABP [4] = molecular target: T2, Ex-FABP; conditions: TQF, ref Correnti et al., 2011, cited from earlier work; for Kd: pH 7.4
# [5] = design: method as in Chart and Rowe, 1993; conditions: ref Chart and Rowe, 1993; cited from earlier work
# LCN2 [6] = molecular target: T1, LCN2; design: method as in Li et al., 2015; conditions: ITC, earlier report; ref Li et al., 2015; cited from earlier work
molecule,measurement,setting,value
"O=C(N[C@H]1COC(=O)[C@@H](NC(=O)c2cccc(O)c2O)COC(=O)[C@@H](NC(=O)c2cccc(O)c2O)COC1=O)c1cccc(O)c1O [apo-Ent, enterobactin]",n (binding stoichiometry),LCN2 [1],0.872
same,ΔH (enthalpy),LCN2 [1],-27800 cal/mol
same,ΔS (entropy),LCN2 [1],"−58.9 cal/mol, K"
same,Kd,LCN2 [1]; Kd,58 nM and 58.4 nM
same,Kd,Ex-FABP [2],86.2 ± 14.6 nM
same,n (binding stoichiometry),"Ex-FABP [2]; ITC, TBS pH 7.4, 30°C",0.617
same,ΔH (enthalpy),"Ex-FABP [2]; ITC, TBS pH 7.4, 30°C",-28300 cal/mol
same,ΔS (entropy),"Ex-FABP [2]; ITC, TBS pH 7.4, 30°C","−60.9 cal/mol, K"
same,Kd,Cal-γ,Under threshold
same,Kd,Cal-γ; listed as apoEnt,neither Cal-γ nor α-1-ovoglycoprotein bind
same,Kd,Cal-γ; listed as enterobactin,No interactions could be measured
same,Kd,α-1-ovoglycoprotein,Under threshold
same,Kd,α-1-ovoglycoprotein; listed as apoEnt,neither Cal-γ nor α-1-ovoglycoprotein bind
same,Kd,α-1-ovoglycoprotein; listed as enterobactin,No interactions could be measured
same,Kd,"LCN2 [3]; ref Abergel et al., 2006",3.57 nM
same,Kd,Ex-FABP [4]; read-out: Kd,0.5 ± 0.15 nM
same,binding/affinity constant for Fe^3+ (ferric ion),[5],10^52 M^−1
O=C(N[C@H]1COC(=O)[C@@H](NC(=O)c2cccc([O-])c2[O-])COC(=O)[C@@H](NC(=O)c2cccc([O-])c2[O-])COC1=O)c1cccc([O-])c1[O-].[Fe+3] [Fe^3+-Ent],fold higher affinity for Fe^3+-Ent than apoEnt,LCN2 [1],4.9 fold
same,n (binding stoichiometry),LCN2 [1],0.863
same,ΔH (enthalpy),LCN2 [1],-26200 cal/mol
same,ΔS (entropy),LCN2 [1],"−50.2 cal/mol, K"
same,Kd,LCN2 [1]; read-out: Kd,11.8 ± 8.8 nM
same,fold higher affinity for Fe^3+-Ent than apoEnt,Ex-FABP [2]; ITC,16 fold
same,n (binding stoichiometry),"Ex-FABP [2]; ITC, TBS pH 7.4, 30°C",0.672
same,ΔH (enthalpy),"Ex-FABP [2]; ITC, TBS pH 7.4, 30°C",-19400 cal/mol
same,ΔS (entropy),"Ex-FABP [2]; ITC, TBS pH 7.4, 30°C","−26.1 cal/mol, K"
same,Kd,"Ex-FABP [2]; ITC, TBS pH 7.4, 30°C, 5 μM lipocalin, read-out: Kd",5.3 ± 3.8 nM
same,Kd,LCN2 [6],240 nM
same,Kd,"LCN2 [3]; ref Fischbach et al., 2006",0.43 nM
same,Kd,"LCN2 [3]; ref Goetz et al., 2002",0.41 nM
same,fold higher affinity for Fe^3+-Ent than apoEnt,"LCN2 [3]; ref Abergel et al., 2006",8.7 fold
same,Kd,Ex-FABP [4]; read-out: Kd,0.22 ± 0.06 nM
same,fold higher affinity for Fe^3+-Ent than apoEnt,Ex-FABP [4],2.3 fold
salmochelin [apo-Sal (or DGE)],Kd,LCN2 [1],No binding was observed
same,Kd,"Ex-FABP [2]; ITC, TBS pH 7.4, 30°C, 5 μM lipocalin",No interactions could be measured
same,Kd,"Ex-FABP [2]; ITC, TBS pH 7.4, 30°C, 5 μM lipocalin, listed as apoDGE",failed to interact
same,Kd,Cal-γ,Under threshold
same,Kd,Cal-γ; listed as apoDGE,neither Cal-γ nor α-1-ovoglycoprotein bind
same,Kd,Cal-γ; listed as salmochelin,No interactions could be measured
same,Kd,α-1-ovoglycoprotein,Under threshold
same,Kd,α-1-ovoglycoprotein; listed as apoDGE,neither Cal-γ nor α-1-ovoglycoprotein bind
same,Kd,α-1-ovoglycoprotein; listed as salmochelin,No interactions could be measured
same,Kd,Ex-FABP [4],Under threshold
